Measurements from ChEMBL document CHEMBL1201862, “PubChem BioAssay data set” (2004).
The source made the active and inactive calls.

Key:
[1] = target: T1, RNA-editing ligase 1, mitochondrial (Trypanosoma brucei brucei, UniProt P86926); test: inhibition of trypanosome RNA editing ligase – biochemical, fluorescence, Trypanosoma brucei, dose response (AID 1117295); format: functional
T1 sequence (P86926 whole entry): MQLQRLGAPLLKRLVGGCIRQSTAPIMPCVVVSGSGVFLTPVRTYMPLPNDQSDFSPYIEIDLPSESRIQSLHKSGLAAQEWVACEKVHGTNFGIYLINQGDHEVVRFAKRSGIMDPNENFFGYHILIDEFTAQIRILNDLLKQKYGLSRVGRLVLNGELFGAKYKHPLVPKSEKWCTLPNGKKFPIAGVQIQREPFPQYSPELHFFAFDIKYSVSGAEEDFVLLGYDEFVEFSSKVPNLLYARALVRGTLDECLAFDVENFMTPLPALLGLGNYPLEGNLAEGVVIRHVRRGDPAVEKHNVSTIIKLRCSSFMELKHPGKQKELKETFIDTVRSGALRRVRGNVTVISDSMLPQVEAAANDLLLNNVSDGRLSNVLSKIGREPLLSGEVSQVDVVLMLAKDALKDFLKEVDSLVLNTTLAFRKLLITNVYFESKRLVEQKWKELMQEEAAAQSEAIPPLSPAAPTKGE

Galanin receptor type 3 = target: T2, Galanin receptor type 3 (Homo sapiens, UniProt O60755); test: Fluorescence-based cell-based primary high throughput dose response assay to identify antagonists of the Galanin Receptor 3 (GalR3).; format: functional
T2 sequence (O60755 whole entry): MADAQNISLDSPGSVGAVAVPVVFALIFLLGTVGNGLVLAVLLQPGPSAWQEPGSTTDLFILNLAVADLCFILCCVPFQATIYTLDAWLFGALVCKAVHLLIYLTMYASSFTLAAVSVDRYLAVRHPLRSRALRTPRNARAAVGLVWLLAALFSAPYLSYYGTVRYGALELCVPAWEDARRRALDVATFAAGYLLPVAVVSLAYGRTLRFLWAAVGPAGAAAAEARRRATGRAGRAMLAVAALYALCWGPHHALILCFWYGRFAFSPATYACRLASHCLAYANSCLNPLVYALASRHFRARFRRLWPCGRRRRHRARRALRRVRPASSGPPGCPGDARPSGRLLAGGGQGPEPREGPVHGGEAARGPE

cells = format: functional, cell-based; settings: HEK-CNG
[2] = reduction of Shn3 3'UTR-driven luciferase in osteoblasts – cell-based, Clone20 osteoblasts, firefly luciferase, cherry-picked, dose response (AID 624132); format: functional;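 note: firefly luciferase luminescence from reporter carrying the Shn3 3'UTR in osteoblasts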
[3] = HEK-293T viability loss after treatment – luminescence, T-cell screen hits, cytotoxicity control for TCR NF-kB inhibitor project, dose response (AID 489026); format: functional, cell-based;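 note: cells exposed to compound about 14 hours before the viability readout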
[4] = target: T3, COUP transcription factor 2 (Homo sapiens, UniProt P24468); test: Luminescence-based cell-based high throughput dose response assay to identify inhibitors of COUP-TFII (NR2F2).; format: functional;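 note: HEK293 cells transiently cotransfected with COUP-TFII expression vector and reporter; luciferase reporter luminescence driven by COUP-TFII from the pX2-168 reporter plasmid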
T3 sequence (P24468 whole entry): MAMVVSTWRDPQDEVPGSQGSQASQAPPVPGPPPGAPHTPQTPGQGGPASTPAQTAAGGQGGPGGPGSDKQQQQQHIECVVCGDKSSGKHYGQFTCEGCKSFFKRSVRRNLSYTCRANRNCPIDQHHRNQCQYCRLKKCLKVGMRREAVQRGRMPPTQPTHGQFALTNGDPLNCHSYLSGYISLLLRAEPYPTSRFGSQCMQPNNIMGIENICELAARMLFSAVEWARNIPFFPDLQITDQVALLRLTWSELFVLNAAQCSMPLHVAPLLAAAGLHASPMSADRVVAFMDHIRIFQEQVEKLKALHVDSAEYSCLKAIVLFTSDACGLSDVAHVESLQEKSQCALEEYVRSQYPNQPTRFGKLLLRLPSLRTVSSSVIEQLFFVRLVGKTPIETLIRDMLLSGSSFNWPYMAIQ

[5] = loss of viability in HepG2 cells – cell-based, CellTiter-Glo, cherry-picked, cytotoxicity control for Shn3 inhibitor project, dose response (AID 624134); format: functional
[6] = non-specific 3'UTR reporter inhibition in Clone20-Shn3RL – cell-based, Renilla luciferase, cherry-picked, counter-screen for Shn3 inhibitor project, dose response (AID 624133); format: functional
[7] = blockers of bursicon-stimulated LGR2 cAMP reporter – cell-based, HEK293, CRE-luciferase reporter, cherry pick, set 2, dose response (AID 743343); format: functional;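 note: transfected cells were stimulated with diluted bursicon conditioned medium after compound addition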
[8] = toxicity toward HepG2 liver cells – cell-based, plate reader, cherry-pick, antagonist series, cytotoxicity control, dose response (AID 743416); format: functional
[9] = viability loss in HEK293 cells – cell-based, plate reader, cherry-picked samples, cytotoxicity control, dose response (AID 743446); format: functional
[10] = A549 cell cytotoxicity, dose response, cytotoxicity control, plate reader, cherry-pick, antagonist series (AID 743412); format: functional, cell-based
[11] = blockade of melanocortin 4 receptor signaling – cell-based, plate reader, cherry pick, counter-screen for LGR2 antagonist project, dose response (AID 743444); format: functional;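 note: transfected HEK 293 cells stimulated with alpha-MSH peptide; potency of inhibitors of the alpha-MSH evoked signal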
[12] = general cell-killing toxicity readout – plate reader, dry powder samples, cytotoxicity control for PAX8 inhibitor project, dose response (AID 743021); format: functional, cell-based
Paired box protein Pax-8 = Paired box protein Pax-8 (Homo sapiens, UniProt Q06710); test: PAX8 transcriptional activity inhibition in RMG-I – RMG-I cells, luciferase, cherry-pick, dose response (AID 687027); format: functional, cell-based;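 note: luciferase reporter driven by Pax8 target thyroperoxidase promoter measured by SteadyGlo luminescence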
[13] = target: Ras and Rab interactor 1/Tyrosine-protein kinase ABL1 (Homo sapiens, UniProt P00519+Q13671); format: functional;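 note: biochemical TR-FRET dose-response test measuring inhibition of binding between Rin1 and Abl proteins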
Aminopeptidase N = target: T4, Aminopeptidase N (Plasmodium falciparum FcB1/Columbia, UniProt O96935); test: malaria alanyl aminopeptidase activity blockers – biochemical, fluorogenic H-Leu-NHMec substrate, 1536-well (AID 1445); parameters: species or system Plasmodium falciparum 3D7, 3D7
T4 sequence (O96935 whole entry): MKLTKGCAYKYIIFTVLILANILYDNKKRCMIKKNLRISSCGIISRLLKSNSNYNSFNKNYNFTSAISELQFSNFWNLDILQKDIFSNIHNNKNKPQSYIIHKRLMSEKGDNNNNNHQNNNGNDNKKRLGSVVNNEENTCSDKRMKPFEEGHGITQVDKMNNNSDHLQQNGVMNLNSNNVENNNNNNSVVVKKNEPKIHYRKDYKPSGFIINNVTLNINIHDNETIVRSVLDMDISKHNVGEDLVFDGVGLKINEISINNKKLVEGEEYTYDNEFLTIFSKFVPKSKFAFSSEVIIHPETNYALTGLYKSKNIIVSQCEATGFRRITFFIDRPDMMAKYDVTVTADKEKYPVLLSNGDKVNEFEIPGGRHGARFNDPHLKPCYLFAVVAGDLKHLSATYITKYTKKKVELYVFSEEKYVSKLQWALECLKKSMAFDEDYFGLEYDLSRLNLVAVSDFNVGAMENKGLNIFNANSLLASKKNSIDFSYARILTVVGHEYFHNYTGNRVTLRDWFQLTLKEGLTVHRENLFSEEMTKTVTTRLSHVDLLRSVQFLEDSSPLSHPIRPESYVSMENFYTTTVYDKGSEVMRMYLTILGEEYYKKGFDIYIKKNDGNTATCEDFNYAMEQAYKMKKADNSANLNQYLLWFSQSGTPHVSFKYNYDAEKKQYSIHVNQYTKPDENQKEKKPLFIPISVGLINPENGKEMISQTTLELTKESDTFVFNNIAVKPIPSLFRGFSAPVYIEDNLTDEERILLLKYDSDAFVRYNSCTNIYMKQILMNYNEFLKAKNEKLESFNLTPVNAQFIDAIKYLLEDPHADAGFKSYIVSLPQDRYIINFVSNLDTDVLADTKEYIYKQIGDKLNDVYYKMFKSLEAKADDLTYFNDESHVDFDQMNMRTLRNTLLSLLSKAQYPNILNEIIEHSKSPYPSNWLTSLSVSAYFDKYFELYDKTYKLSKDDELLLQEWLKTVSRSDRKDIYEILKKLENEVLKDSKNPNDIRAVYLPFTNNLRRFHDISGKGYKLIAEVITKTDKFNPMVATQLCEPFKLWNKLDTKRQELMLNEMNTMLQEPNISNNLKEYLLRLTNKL

[14] = target: FAD-linked sulfhydryl oxidase ALR (Homo sapiens, UniProt P55789); test: ALR-catalysed DTT oxidation blockers – biochemical, H2O2 detection, luminescence, cherry-pick, dose response (AID 493248)
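Throughout, for EC50: target is galanin receptor GalR3 read with a cAMP biosensor in HEK293 cells.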

Sequence of Ras and Rab interactor 1/Tyrosine-protein kinase ABL1 (P00519 whole entry): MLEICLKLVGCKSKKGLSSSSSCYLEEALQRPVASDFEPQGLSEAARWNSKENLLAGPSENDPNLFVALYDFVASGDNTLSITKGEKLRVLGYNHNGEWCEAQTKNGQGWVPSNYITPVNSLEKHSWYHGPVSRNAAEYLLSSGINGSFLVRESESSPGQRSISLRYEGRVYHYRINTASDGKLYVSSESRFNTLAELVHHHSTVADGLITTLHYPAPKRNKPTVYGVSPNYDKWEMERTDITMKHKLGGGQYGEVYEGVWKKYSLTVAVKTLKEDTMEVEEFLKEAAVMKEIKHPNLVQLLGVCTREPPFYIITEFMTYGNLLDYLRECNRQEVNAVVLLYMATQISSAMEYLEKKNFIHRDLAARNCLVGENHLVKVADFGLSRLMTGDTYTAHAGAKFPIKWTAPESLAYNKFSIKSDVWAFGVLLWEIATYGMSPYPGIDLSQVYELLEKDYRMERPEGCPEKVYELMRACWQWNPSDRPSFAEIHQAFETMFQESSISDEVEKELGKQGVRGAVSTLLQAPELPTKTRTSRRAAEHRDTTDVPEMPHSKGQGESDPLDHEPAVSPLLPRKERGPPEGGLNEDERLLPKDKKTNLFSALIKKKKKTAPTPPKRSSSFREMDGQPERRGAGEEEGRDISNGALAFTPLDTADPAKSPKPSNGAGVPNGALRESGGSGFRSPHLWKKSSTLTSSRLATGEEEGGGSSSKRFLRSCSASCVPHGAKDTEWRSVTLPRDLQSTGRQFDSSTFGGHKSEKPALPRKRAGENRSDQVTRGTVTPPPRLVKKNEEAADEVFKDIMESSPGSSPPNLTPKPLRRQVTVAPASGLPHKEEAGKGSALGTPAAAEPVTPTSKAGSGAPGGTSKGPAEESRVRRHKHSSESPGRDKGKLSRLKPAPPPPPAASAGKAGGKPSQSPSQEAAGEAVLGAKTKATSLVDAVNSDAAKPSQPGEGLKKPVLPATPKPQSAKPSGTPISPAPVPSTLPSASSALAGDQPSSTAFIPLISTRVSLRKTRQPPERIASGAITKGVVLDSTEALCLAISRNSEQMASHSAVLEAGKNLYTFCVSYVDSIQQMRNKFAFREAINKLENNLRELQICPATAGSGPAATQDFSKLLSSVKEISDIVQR
Sequence of Ras and Rab interactor 1/Tyrosine-protein kinase ABL1 (Q13671 whole entry): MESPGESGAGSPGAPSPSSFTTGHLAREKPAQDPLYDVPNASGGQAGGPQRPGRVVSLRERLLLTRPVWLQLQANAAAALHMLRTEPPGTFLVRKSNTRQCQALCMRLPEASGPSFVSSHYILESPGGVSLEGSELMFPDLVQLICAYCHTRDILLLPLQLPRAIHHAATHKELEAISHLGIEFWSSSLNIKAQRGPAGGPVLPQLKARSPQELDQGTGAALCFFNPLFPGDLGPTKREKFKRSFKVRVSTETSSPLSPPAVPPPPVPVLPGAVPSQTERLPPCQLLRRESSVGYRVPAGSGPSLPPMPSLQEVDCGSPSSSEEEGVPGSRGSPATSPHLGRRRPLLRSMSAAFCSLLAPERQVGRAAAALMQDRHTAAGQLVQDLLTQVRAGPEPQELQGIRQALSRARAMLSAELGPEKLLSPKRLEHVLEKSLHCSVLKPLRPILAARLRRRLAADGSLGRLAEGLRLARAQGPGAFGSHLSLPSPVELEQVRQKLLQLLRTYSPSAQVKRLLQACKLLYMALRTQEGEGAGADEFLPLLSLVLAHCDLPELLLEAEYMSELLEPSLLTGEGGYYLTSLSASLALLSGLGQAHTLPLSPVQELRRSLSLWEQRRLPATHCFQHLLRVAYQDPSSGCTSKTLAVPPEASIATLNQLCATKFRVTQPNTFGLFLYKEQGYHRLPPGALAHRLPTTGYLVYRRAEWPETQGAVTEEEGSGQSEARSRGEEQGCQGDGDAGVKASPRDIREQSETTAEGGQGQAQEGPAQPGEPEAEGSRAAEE
Sequence of FAD-linked sulfhydryl oxidase ALR (P55789 whole entry): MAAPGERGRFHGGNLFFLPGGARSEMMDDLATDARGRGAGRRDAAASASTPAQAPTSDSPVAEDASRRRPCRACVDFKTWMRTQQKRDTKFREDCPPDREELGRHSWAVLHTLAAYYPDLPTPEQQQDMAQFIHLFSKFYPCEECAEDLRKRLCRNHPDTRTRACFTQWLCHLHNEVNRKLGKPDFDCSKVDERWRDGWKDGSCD
Sequence of Paired box protein Pax-8 (Q06710 whole entry): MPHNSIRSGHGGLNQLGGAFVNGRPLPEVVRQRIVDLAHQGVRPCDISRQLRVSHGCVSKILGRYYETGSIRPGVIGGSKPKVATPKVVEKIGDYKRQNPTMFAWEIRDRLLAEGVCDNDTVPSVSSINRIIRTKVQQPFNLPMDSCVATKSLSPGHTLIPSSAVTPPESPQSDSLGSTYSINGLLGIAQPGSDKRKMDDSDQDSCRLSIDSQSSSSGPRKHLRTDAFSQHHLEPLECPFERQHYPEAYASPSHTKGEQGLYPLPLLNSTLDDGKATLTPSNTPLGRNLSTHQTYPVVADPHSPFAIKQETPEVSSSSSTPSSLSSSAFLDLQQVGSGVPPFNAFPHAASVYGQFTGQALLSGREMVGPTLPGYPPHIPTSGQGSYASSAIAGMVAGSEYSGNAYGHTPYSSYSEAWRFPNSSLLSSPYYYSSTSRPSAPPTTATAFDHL

| SMILES | IC50 [1] | AC50 [2] | AC50 [5] | AC50 [6] | AC50 [7] | AC50 [11] | also measured |
| --- | --- | --- | --- | --- | --- | --- | --- |
| COC(=O)C1=C(C)N(Cc2ccccc2C(F)(F)F)C(NCc2cccc(C(F)(F)F)c2)=NC1c1ccc(C(F)(F)F)cc1 (centres undefined) | > 96.6 µM (inactive) |  |  |  |  |  |  |
| Cc1oc(-c2ccc(Cl)cc2)nc1C[S+]([O-])CC(=O)NCCCN1CCN(Cc2ccccc2)CC1 (centres undefined) |  | 2.52 µM (active) | 1.69 µM (active) | 4.29 µM (active) |  |  | IC50 (Galanin receptor type 3): 2.03 µM (active); EC50 (cells): > 29.9 µM (inactive); IC50 [3]: > 80 µM (inactive); IC50 [4]: 4.34 µM (active) |
| CCCCNc1c(-c2ccc(OC)c(SC3CCCCC3)c2)nc2ccc(C)cn12 |  | 3.68 µM (active) | 45 µM (active) | 2.14 µM (active) | 7.85 µM (active) | 9.94 µM (active) | AC50 [8]: 18.4 µM (active); AC50 [9]: 15.5 µM (active); AC50 [10]: 22.1 µM (active) |
| OCC1OC(n2cnc3c(NCc4ccccc4O)ncnc32)C(O)C1O (centres undefined) |  |  |  |  |  |  | AC50 [12]: 4.79 µM (active); AC50 (Paired box protein Pax-8): 0.759 µM (active); IC50 [13]: > 24.5 µM (inactive) |
| O=C(Nc1ccc(N2CCN(C(=O)c3ccc(Cl)cc3)CC2)cc1)c1cc2ccccc2o1 |  |  |  |  | 29.4 µM (active) | 28.6 µM (active) |  |
| Nc1ccc(-c2nc3ccc(N)cc3[nH]2)cc1 | 46.1 µM (inactive) |  |  |  |  |  | IC50 (Aminopeptidase N): 49.9 µM (active); AC50 [14]: 2.55 µM (active) |
